The text below walks through data of patent publication US20230270881A1, “ONCOGENIC TRIM37 IS A TARGETABLE EPIGENETIC DRIVER OF METASTASIS AND LINKS CHEMORESISTANCE AND METASTATIC FATE IN TRIPLE-NEGATIVE BREAST CANCER” (University of Virginia Patent Foundation, priority 2020, published 2023).

One experiment relates to TRIM37. In words: Immunoblotting of TRIM37 in treated cells. Type of experiment: cell-based, human. As to the method: Immunoblotting. Cell extracts were prepared by lysing cell pellet in RIPA buffer supplemented with 1 mM sodium ortho-vanadate and 10 mM PMSF. To prepare protein extract from mouse tissue, it was homogenized in lysis buffer (1% SDS, 1 mM sodium ortho-vanadate, 10 mM Tris pH 7.4 and protease inhibitor). Immunoblots were probed using antibodies against TRIM37 (Abcam), PARP (Cell Signaling Technology), p21 (Cell Signaling Technology), γ-ph-H2AX (Cell Signaling Technology), RAD51C (Invitrogen), ph-ATM (Cell Signaling Technology), ph-STAT1 (Cell Signaling Technology), ph-STAT3 (Cell Signaling Technology), ph-STAT5 (Cell Signaling Technology), BIM (Abcam), FOLR1 (R&D) and α-tubulin (Invitrogen).
A general note: Immunoblotting shows a protein as a band on a membrane.

In the next experiment the test system is HCC1806 tumors. In words: NSG tumor xenograft, Dox-induced TRIM37 upregulation. Format: in vivo. The settings on record: mice bearing HCC1806RR subcutaneous tumors, 2 mg/kg Dox. As to the method:
(§1) NSG tumor xenograft studies. All animal procedures were conducted under the accordance of the University of Virginia IACUC with approved protocol (4112 and 4222). For different cell lines, weight and aged matched female NSG mice were injected subcutaneously with 2×10^6 TNBC cells in their right flank with indicated cell line in matrigel. 2×10^6 HCC1806RR or 231-2b were injected in 100 µl volume. For Dox-induced TRIM37 upregulation studies in tumor, mice bearing ~200 mm^3 HCC1806 tumors weight matched animals were randomly assigned into groups and injected with 2 mg/kg Dox. Tumors were harvested 24 hrs. following Dox treatment. For smart nanoparticles efficiency in vivo, mice bearing ~200 mm^3 231-2b tumors weight matched animals were randomly assigned into groups and injected with control or smart nanoparticles. At the endpoint, RNA and protein lysates were prepared from isolated tumors and analyzed by western blotting.

For the next experiment, the system named is 231-2b tumors. Put plainly: NSG tumor xenograft, smart nanoparticles with or without Dox. Format: in vivo, NSG mice. The settings on record: 231-2b xenografts; 1.2 mg/kg nanoparticles intra-tumor every three days for 18 days; 2 mg/kg Dox two doses. As to the method: as §1
To investigate the outcome of TRIM37 targeting in clinical settings, we challenged 231-2b-derived xenografts with smart nanoparticles in combination with chemotherapy. When tumors reached the size of ~50 mm^3, animals received two doses of either 2 mg/kg Dox or vehicle (FIG. 7J). Furthermore, within each group, animals were randomly administered 1.2 mg/kg (~4×10^7nanoparticles) of smart or control nanoparticles intra-tumor every three days for 18 days (FIG. 7J).

`COc1cccc2c1C(=O)c1c(O)c3c(c(O)c1C2=O)C[C@@](O)(C(=O)CO)C[C@@H]3O[C@H]1C[C@H](N)[C@H](O)[C@H](C)O1` [doxorubicin]: the TRIM37 expression entry with TRIM37 (MCF7 or MCF10A cells) is “no increase”; with TRIM37 (MDA MB 468, HCC1806 and MDA MB 231 cells) it was “dose- and time-dependent upregulation”. Further, the “TRIM37 in xenograft tumors” value in the experiment with HCC1806 tumors was “upregulated TRIM37”; with HCC1806 tumors (listed as dox), “increased TRIM37 level”. In addition, the tumor growth entry in the experiment with 231-2b tumors is on record as “significantly attenuated”.
